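The compound was tested at five concentrations on cells cultured in 96-well plates, with a 48-hour exposure period. GI50 is the concentration that inhibits growth by half. TGI marks complete inhibition of growth.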
Key:
Assay in all cases: inhibition of tumour cell growth, NCI panel, 48 h; in the data active = GI50 below about 0.43 µM; inactive = the rest
U251 CNS = system: U251 CNS
K-562 leukemia = system: K-562 leukemia
786-0 renal = system: 786-0 renal
NCI/ADR-RES ovarian = system: NCI/ADR-RES ovarian
UACC-257 melanoma = system: UACC-257 melanoma
MCF7 breast = system: MCF7 breast
HOP-62 NSCLC = system: HOP-62 NSCLC
HCC-2998 colon = system: HCC-2998 colon
NCI-H226 lung = system: NCI-H226 lung
HCT-15 colon = system: HCT-15 colon
SF-539 CNS = system: SF-539 CNS
HT29 colon = system: HT29 colon
MDA-MB-231 breast = system: MDA-MB-231 breast
SNB-19 CNS = system: SNB-19 CNS
SNB-75 CNS = system: SNB-75 CNS
SW-620 colon = system: SW-620 colon
NCI-H23 lung = system: NCI-H23 lung
OVCAR-8 ovarian = system: OVCAR-8 ovarian
IGROV1 ovarian = system: IGROV1 ovarian
SF-268 CNS = system: SF-268 CNS
KM12 colon = system: KM12 colon
HCT-116 colon = system: HCT-116 colon
HS 578T breast = system: HS 578T breast
A549 NSCLC = system: A549 NSCLC
SN12C renal = system: SN12C renal
NCI-H522 lung = system: NCI-H522 lung
CAKI-1 renal = system: CAKI-1 renal
OVCAR-3 ovarian = system: OVCAR-3 ovarian

COc1ccc(N=C2NN=C(c3c[nH]c4ccccc34)CS2)cc1OC
> 89.9 µM: TGI (OVCAR-8 ovarian)
> 91.5 µM: TGI (786-0 renal)
> 40.6 µM: TGI (OVCAR-3 ovarian)
> 53.1 µM: TGI (A549 NSCLC)
> 75.5 µM: TGI (MCF7 breast)
> 56.6 µM: TGI (UACC-257 melanoma)
20.6 µM: TGI (SNB-75 CNS)
> 100 µM: TGI (U251 CNS) | TGI (K-562 leukemia) | TGI (NCI-H226 lung) | TGI (HCT-15 colon) | TGI (SF-539 CNS) | TGI (MDA-MB-231 breast) | TGI (SNB-19 CNS) | TGI (IGROV1 ovarian) | TGI (SF-268 CNS) | TGI (HCT-116 colon) | TGI (HS 578T breast) | TGI (SN12C renal) | TGI (NCI-H522 lung)
> 84.2 µM: TGI (KM12 colon)
> 43.6 µM: TGI (HT29 colon)
inactive: GI50 (U251 CNS) 6.38 µM | GI50 (K-562 leukemia) 7.67 µM | GI50 (786-0 renal) 12 µM | GI50 (NCI/ADR-RES ovarian) 3.15 µM | GI50 (UACC-257 melanoma) 11.1 µM | GI50 (MCF7 breast) 5.21 µM | GI50 (HOP-62 NSCLC) 12.7 µM | GI50 (HCC-2998 colon) 9.57 µM | GI50 (NCI-H226 lung) 15.9 µM | GI50 (HCT-15 colon) 4.02 µM | GI50 (SF-539 CNS) 8.25 µM | GI50 (HT29 colon) 4.01 µM | GI50 (MDA-MB-231 breast) 8.73 µM | GI50 (SNB-19 CNS) 10.9 µM | GI50 (SNB-75 CNS) 3.34 µM | GI50 (SW-620 colon) 5.68 µM | GI50 (NCI-H23 lung) 13.5 µM | GI50 (OVCAR-8 ovarian) 22.7 µM | GI50 (IGROV1 ovarian) 10.5 µM | GI50 (SF-268 CNS) 8.65 µM | GI50 (KM12 colon) 3.05 µM | GI50 (HCT-116 colon) 8.25 µM | GI50 (HS 578T breast) 5.38 µM | GI50 (A549 NSCLC) 9.92 µM | GI50 (SN12C renal) 18.4 µM | GI50 (NCI-H522 lung) 7.17 µM | GI50 (CAKI-1 renal) 8.05 µM | GI50 (OVCAR-3 ovarian) 2870 nM
> 84.1 µM: TGI (HOP-62 NSCLC)
> 60.4 µM: TGI (SW-620 colon)
> 48.3 µM: TGI (HCC-2998 colon)
> 93.2 µM: TGI (NCI-H23 lung)
> 79.1 µM: TGI (CAKI-1 renal)
> 28 µM: TGI (NCI/ADR-RES ovarian)
